Source: patent US20250188030A1, “Biphenyl and Phenylpyridine Compounds” (Pfizer Inc., priority 2023, published 2025)
Like-named read-outs stand apart in the source and are kept apart here.

What was measured:
KAT2A = KAT2A (Homo sapiens (Human), UniProt Q92830); assay: KAT2A acetyltransferase biochemical assay (RapidFire mass spectrometry, AcCoA to CoA)
H3K9AC (HT1080 cells) = assay: H3K9AC Sandwich ELISA Assay in HT1080 cells (KAT2A primary cell-based screening assay); parameters: species or system Human
Procedure, shortened: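 Acetylated H3K9 quantified by luminescent sandwich ELISA (total H3 capture, H3K9ac detection) on HCl lysates of HT1080 cells. Cells had 24 h compound exposure at 37 °C, top concentration 10 µM, 10-point 3-fold series, 0.1% DMSO; IC50 from four-parameter fitting.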

MM.1S cells = assay: MM1.S 10 Day Proliferation Assay (CellTiter-Glo); assay type: cell-based, Human
Description: Human B lymphoblast cell line MM.1S was obtained from American Type Culture Collection (ATCC), Manassas, VA USA, Cat. MM.1S (ATCC® CRL-2974™). Cells were cultured in RPMI (Thermo Fisher Scientific/Gibco Life Technologies Cat. #111875-093) plus 10% (v/v) FBS (Thermo Fisher Scientific/Gibco Life Technologies Cat. #26140-079) and 1% Penicillin-Streptomycin (Thermo Fisher Scientific/Gibco Life Technologies Cat. #15070063) at 37° C. in 5% CO2.
MM1.S cells were trypsinized cell viability count performed, and cells suspended in complete media at 5,556 cells/ml. Cells were then seeded (90 μl/well) into a 96-well round black/clear bottom, ULA (Ultra-Low Attachment surface plate (Corning cat #4520) at a density of 500 cells/well. Cells were then incubated for 16 hours at 37° C. and 5% CO2. Compound dilution plates were prepared in 96-well, clear U-bottom, polypropylene plates (Corning 3365) in 100% DMSO at 10 mM stock concentration in duplicate wells, using a 10-point serial dilution (1:3 dilutions). Compounds were diluted to 1:100 in growth medium. Then 10 μl of diluted compounds were added to each well of the cell plates using a Beckman FX liquid handling system such that the highest compound concentration tested was 10 μM final, with a 0.1% final DMSO concentration in the total volume of 100 μl. Plates were incubated for 10 total days at 37° C. and 5% CO2. Fresh media containing compound was refreshed at 5 days treatment.
Finally, the treatment plates were removed from the incubator and 100 μl of CellTiter-Glo Luminescent reagent was added to each well, and plates were equilibrated in the dark for 30 minutes. Plates were read on the PHERAstar plate reader using the 96-well with Luminescent reading mode. IC50 values were calculated using a four-parameter fit with GraphPad Prism version 9.5.1 or in house modified IDBS ActivityBase data analyzing package.

[1] = read-out: KAT2A Ki at 1 μM AcCoA, 5 μM H3 1-21 peptide, 0.5 nM KAT2A, 90-minute reaction
[2] = Homo sapiens, HT-1080, H3K9AC sandwich ELISA
[3] = KAT2A Ki at 1 μM AcCoA, 5 μM H3 1-21 peptide, 0.5 nM KAT2A, 90-minute reaction

Sequence of KAT2A (Q92830 whole entry): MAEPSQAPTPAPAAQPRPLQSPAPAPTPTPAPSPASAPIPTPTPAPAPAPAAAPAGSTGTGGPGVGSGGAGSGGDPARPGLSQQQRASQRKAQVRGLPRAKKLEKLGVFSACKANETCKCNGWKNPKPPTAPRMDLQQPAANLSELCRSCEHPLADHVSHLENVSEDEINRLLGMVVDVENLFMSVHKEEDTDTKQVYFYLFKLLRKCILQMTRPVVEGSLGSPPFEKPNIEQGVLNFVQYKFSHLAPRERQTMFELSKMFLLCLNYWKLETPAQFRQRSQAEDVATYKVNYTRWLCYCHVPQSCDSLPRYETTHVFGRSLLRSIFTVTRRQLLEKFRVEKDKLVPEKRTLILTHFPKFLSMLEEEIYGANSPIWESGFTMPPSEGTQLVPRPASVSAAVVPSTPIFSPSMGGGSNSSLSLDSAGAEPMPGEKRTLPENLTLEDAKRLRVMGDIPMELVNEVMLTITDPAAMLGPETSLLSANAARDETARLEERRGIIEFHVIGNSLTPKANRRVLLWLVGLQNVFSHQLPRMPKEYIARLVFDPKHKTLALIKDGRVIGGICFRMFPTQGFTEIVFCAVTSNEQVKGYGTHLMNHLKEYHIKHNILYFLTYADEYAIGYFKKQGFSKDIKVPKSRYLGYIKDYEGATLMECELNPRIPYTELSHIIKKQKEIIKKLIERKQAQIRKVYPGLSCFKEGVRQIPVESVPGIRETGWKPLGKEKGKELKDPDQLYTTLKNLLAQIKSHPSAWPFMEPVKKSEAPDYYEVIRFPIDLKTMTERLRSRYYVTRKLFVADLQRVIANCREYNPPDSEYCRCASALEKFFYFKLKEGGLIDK

Row | SMILES | Ki (KAT2A; [1]) [nM] | IC50 (H3K9AC (HT1080 cells); [2]) [nM] | IC50 (MM.1S cells; Homo sapiens, MM1.S, 240 h) [nM] | IC50 (H3K9AC (HT1080 cells); H3K9AC sandwich ELISA) [nM] | Ki (KAT2A; [3]) [nM] | IC50 (MM.1S cells) [nM]
1 | CC(C)c1c(F)cccc1-c1cc(C(C)(C)C(=O)NS(=O)(=O)C2(C)CC2)ccc1O[C@@H]1CC[C@@H](NC(=O)[C@@]2(F)CNC3(CCC3)C2)C1 (single isomer, unassigned) [Example C43] | 0.06 | 2.8 | 4.2 | – | – | –
2 | CCc1c(F)cccc1-c1cc(C(C)(C)C(=O)NS(=O)(=O)C(C)C)ccc1O[C@@H]1CC[C@@H](NC(=O)[C@@]2(F)CNCC(C)(C)C2)C1 (single isomer, unassigned) [Example C45] | 0.11 | – | 52.4 | 9.6 | – | –
3 | CC(C)S(=O)(=O)NC(=O)C(C)(C)c1ccc(O[C@@H]2CC[C@@H](NC(=O)[C@@]3(F)CNC4(CCC4)C3)C2)c(-c2ccccc2C2CCC2)c1 (single isomer, unassigned) [Example C48] | 0.21 | 4.7 | 18.9 | – | – | –
4 | CCc1c(F)cccc1-c1cc(CC(=O)NS(=O)(=O)C2(C)CC2)ccc1O[C@@H]1CC[C@@H](NC(=O)[C@@]2(F)CNC3(CCCC3)C2)C1 (single isomer, unassigned) [Example C50] | 0.19 | 0.6 | 1.4 | – | – | –
5 | CCc1c(F)cccc1-c1cc(CC(=O)NS(=O)(=O)C2(C)CC2)ccc1O[C@@H]1CC[C@@H](NC(=O)[C@@]2(F)CNCC(C)(C)C2)C1 (single isomer, unassigned) [Example C57] | 0.05 | – | 7.6 | 4.1 | – | –
6 | CCS(=O)(=O)NC(=O)Cc1ccc(O[C@@H]2CC[C@@H](NC(=O)C3(F)CNCC4(CCC4)C3)C2)c(-c2cccc(F)c2C2CCC2)c1 (single isomer, unassigned) [Example C60] | 0.04 | – | 5 | 3.2 | – | –
7 | CC(C)c1ccccc1-c1cc(CC(=O)NS(=O)(=O)C2(C)CC2)ccc1O[C@@H]1CC[C@@H](NC(=O)[C@@]2(F)CNC3(CCCC3)C2)C1 (single isomer, unassigned) [Example C61] | 0.07 | 0.2 | 0.7 | – | – | –
8 | CCS(=O)(=O)NC(=O)Cc1ccc(O[C@@H]2CC[C@@H](NC(=O)[C@@]3(F)CNC4(CCCC4)C3)C2)c(-c2ccccc2C(C)C)c1 (single isomer, unassigned) [Example C63] | 0.08 | 2.2 | 5.2 | – | – | –
9 | CCc1c(F)cccc1-c1cc(CC(=O)NS(=O)(=O)C(C)C)ccc1O[C@@H]1CC[C@@H](NC(=O)[C@@]2(F)CNCC(C)(C)C2)C1 (single isomer, unassigned) [Example C67] | 0.07 | 4.4 | 13.8 | – | – | –
10 | C[C@@H](C(=O)O)c1ccc(O[C@@H]2CC[C@@H](NC(=O)[C@@H]3CC(C)(C)CN3C)C2)c(-c2cccc(F)c2C2CCC2)c1 (single isomer, unassigned) [Example D13] | 10.8 | 45 | 417 | – | – | –
11 | C[C@H](C(=O)O)c1ccc(O[C@@H]2CC[C@@H](NC(=O)[C@@H]3CC(C)(C)CN3C)C2)c(-c2cccc(F)c2C2CCC2)c1 (single isomer, unassigned) [Example D14] | 8.31 | 25.9 | 171 | – | – | –
12 | CC(C(=O)NS(C)(=O)=O)c1ccc(O[C@@H]2CC[C@@H](NC(=O)[C@@H]3CC(C)(C)CN3C)C2)c(-c2cccc(F)c2C2CCC2)c1 (single isomer, unassigned) [Example E8] | – | 4.76 | – | – | 0.29 | 16.4
13 | CC(C(=O)NS(C)(=O)=O)c1ccc(O[C@@H]2CC[C@@H](NC(=O)[C@@H]3CC(C)(C)CN3C)C2)c(-c2cccc(F)c2C2CCC2)c1 (single isomer, unassigned) [Example E9] | – | – | – | 3.89 | 0.21 | 6.32
14 | O=C(O)Cc1ccc(OC[C@H]2C[C@H](NC(=O)[C@@]3(F)CNC4(CCC4)C3)C2)c(-c2cccc(F)c2C2CCC2)c1 (single isomer, unassigned) [Example F3, (2′-cyclobutyl-3′-fluoro-6-{[(1r,3r)-3-{[(7ξ)-7-fluoro-5-azaspiro[3.4]octane-7-carbonyl]amino}cyclobutyl]methoxy}[1,1′-biphenyl]-3-yl)acetic acid] | 2.48 | 8.5 | 94.5 | – | – | –
15 | CCS(=O)(=O)NC(=O)C(C)(C)c1ccc(OC[C@H]2C[C@H](NC(=O)[C@@]3(F)CNC4(CCC4)C3)C2)c(-c2cccc(F)c2C2CCC2)c1 (single isomer, unassigned) [Example G5, (7Rξ)-N-{(1r,3r)-3-[({2′-cyclobutyl-5-[1-(ethanesulfonamido)-2-methyl-1-oxopropan-2-yl]-3′-fluoro[1,1′-biphenyl]-2-yl}oxy)methyl]cyclobutyl}-7-fluoro-5-azaspiro[3.4]octane-7-carboxamide] | 0.17 | 9.5 | 36.2 | – | – | –
16 | C[C@@H](C(=O)O)c1nn(C)cc1-c1ccc(O[C@@H]2CC[C@@H](NC(=O)[C@]3(F)CNC4(CCC4)C3)C2)c(-c2cccc(F)c2C2CCC2)c1 (single isomer, unassigned) [Example J4] | 0.3 | – | 23.6 | 18.6 | – | –
17 | C[C@H](C(=O)O)c1nn(C)cc1-c1ccc(O[C@@H]2CC[C@@H](NC(=O)[C@]3(F)CNC4(CCC4)C3)C2)c(-c2cccc(F)c2C2CCC2)c1 (single isomer, unassigned) [Example J5] | 0.19 | 2.76 | 21.5 | – | – | –
18 | CC(C)n1cc(-c2ccc(O[C@@H]3CC[C@@H](NC(=O)[C@@]4(F)CNC5(CCC5)C4)C3)c(-c3cccc(F)c3C3CCC3)c2)c(C(=O)O)n1 (single isomer, unassigned) [Example J16] | 0.08 | – | 34.2 | 4.97 | – | –
19 | Cc1cc(NS(C)(=O)=O)n(-c2ccc(O[C@@H]3CC[C@@H](NC(=O)[C@@]4(F)CNC5(CCC5)C4)C3)c(-c3cccc(F)c3C3CCC3)c2)n1 (single isomer, unassigned) [Example L3] | 0.21 | 6.9 | 43.4 | – | – | –
20 | CC(C)c1c(F)cccc1-c1cc(CC(=O)O)ccc1O[C@@H]1CC[C@@H](NC(=O)[C@@]2(F)CNC3(CCC3)C2)C1 [Example A32, [3′-fluoro-6-{[(1R,3R)-3-{[(7S)-7-fluoro-5-azaspiro[3.4]octane-7-carbonyl]amino}cyclopentyl]oxy}-2′-(propan-2-yl)[1,1′-biphenyl]-3-yl]acetic acid] | 0.84 | 4.5 | 31.3 | – | – | –
21 | CC(C)c1ccccc1-c1cc(C(=O)O)ccc1O[C@@H]1CC[C@@H](NC(=O)[C@@]2(F)CNC3(CCC3)C2)C1 [Example A39, 6-{[(1R,3R)-3-{[(7S)-7-fluoro-5-azaspiro[3.4]octane-7-carbonyl]amino}cyclopentyl]oxy}-2′-(propan-2-yl)[1,1′-biphenyl]-3-carboxylic acid] | 0.35 | 6.4 | 29.7 | – | – | –
22 | CC1(S(=O)(=O)NC(=O)Cc2ccc(O[C@@H]3CC[C@@H](NC(=O)[C@@]4(F)CNC5(CCC5)C4)C3)c(-c3cccc(F)c3C3CCC3)c2)CC1 [Example B35, (7ξ)-N-[(1R,3R)-3-({2′-cyclobutyl-3′-fluoro-5-[2-(1-methylcyclopropane-1-sulfonamido)-2-oxoethyl][1,1′-biphenyl]-2-yl}oxy)cyclopentyl]-7-fluoro-5-azaspiro[3.4]octane-7-carboxamide] | 0.04 | 0.6 | 1.3 | – | – | –
23 | CC(C)(C(=O)NS(C)(=O)=O)c1ccc(O[C@@H]2CC[C@@H](NC(=O)[C@@]3(F)CNC4(CCC4)C3)C2)c(-c2cccc(F)c2C2CCC2)c1 [Example C1, (7S)—N-{(1R,3R)-3-[(2′-cyclobutyl-3′-fluoro-5-{1-[(methanesulfonyl)amino]-2-methyl-1-oxopropan-2-yl}[1,1′-biphenyl]-2-yl)oxy]cyclopentyl}-7-fluoro-5-azaspiro[3.4]octane-7-carboxamide] | 0.43 | 18 | 36.8 | – | – | –
24 | CN(C)S(=O)(=O)NC(=O)C(C)(C)c1ccc(O[C@@H]2CC[C@@H](NC(=O)[C@@]3(F)CNC4(CCC4)C3)C2)c(-c2cccc(F)c2C2CCC2)c1 [Example C2, (7S)-N-{(1R,3R)-3-[(2′-cyclobutyl-5-{1-[(dimethylsulfamoyl)amino]-2-methyl-1-oxopropan-2-yl}-3′-fluorobiphenyl-2-yl)oxy]cyclopentyl}-7-fluoro-5-azaspiro[3.4]octane-7-carboxamide] | – | 3.56 | 5.37 | – | 0.05 | –
